{
  "source": "the NIST ThermoML archive (doi:10.1021/je500211w)",
  "assay": "xn = mol fraction of the nth substance listed",
  "conditions": "101 kPa, Liquid, NMR spin-echo technique",
  "data": [
    {"smiles": "OCC(F)(F)F", "note": "[2,2,2-trifluoroethanol] + O", "values": [
      {"measurement": "binary diffusion coefficient", "setting": "283.2 K, x1 = 0.000511", "result": "7.32e-10", "unit": "m2/s"},
      {"measurement": "binary diffusion coefficient", "setting": "283.2 K, x1 = 0.001034", "result": "7.18e-10", "unit": "m2/s"},
      {"measurement": "binary diffusion coefficient", "setting": "283.2 K, x1 = 0.004989", "result": "6.91e-10", "unit": "m2/s"},
      {"measurement": "binary diffusion coefficient", "setting": "283.2 K, x1 = 0.009331", "result": "6.69e-10", "unit": "m2/s"},
      {"measurement": "binary diffusion coefficient", "setting": "283.2 K, x1 = 0.01008", "result": "6.68e-10", "unit": "m2/s"},
      {"measurement": "binary diffusion coefficient", "setting": "283.2 K, x1 = 0.04965", "result": "4.57e-10", "unit": "m2/s"},
      {"measurement": "binary diffusion coefficient", "setting": "288.2 K, x1 = 0.000511", "result": "8.43e-10", "unit": "m2/s"},
      {"measurement": "binary diffusion coefficient", "setting": "288.2 K, x1 = 0.001034", "result": "8.44e-10", "unit": "m2/s"},
      {"measurement": "binary diffusion coefficient", "setting": "288.2 K, x1 = 0.004989", "result": "8.01e-10", "unit": "m2/s"},
      {"measurement": "binary diffusion coefficient", "setting": "288.2 K, x1 = 0.009331", "result": "7.62e-10", "unit": "m2/s"},
      {"measurement": "binary diffusion coefficient", "setting": "288.2 K, x1 = 0.01008", "result": "7.87e-10", "unit": "m2/s"},
      {"measurement": "binary diffusion coefficient", "setting": "288.2 K, x1 = 0.04965", "result": "5.52e-10", "unit": "m2/s"},
      {"measurement": "binary diffusion coefficient", "setting": "293.2 K, x1 = 0.000511", "result": "1.02e-09", "unit": "m2/s"},
      {"measurement": "binary diffusion coefficient", "setting": "293.2 K, x1 = 0.001034", "result": "9.98e-10", "unit": "m2/s"},
      {"measurement": "binary diffusion coefficient", "setting": "293.2 K, x1 = 0.004989", "result": "9.67e-10", "unit": "m2/s"},
      {"measurement": "binary diffusion coefficient", "setting": "293.2 K, x1 = 0.009331", "result": "9.35e-10", "unit": "m2/s"},
      {"measurement": "binary diffusion coefficient", "setting": "293.2 K, x1 = 0.01008", "result": "8.96e-10", "unit": "m2/s"},
      {"measurement": "binary diffusion coefficient", "setting": "293.2 K, x1 = 0.04965", "result": "7.24e-10", "unit": "m2/s"},
      {"measurement": "binary diffusion coefficient", "setting": "298.2 K, x1 = 0.000511", "result": "1.13e-09", "unit": "m2/s"},
      {"measurement": "binary diffusion coefficient", "setting": "298.2 K, x1 = 0.001034", "result": "1.11e-09", "unit": "m2/s"},
      {"measurement": "binary diffusion coefficient", "setting": "298.2 K, x1 = 0.004989", "result": "1.1e-09", "unit": "m2/s"},
      {"measurement": "binary diffusion coefficient", "setting": "298.2 K, x1 = 0.009331", "result": "1.1e-09", "unit": "m2/s"},
      {"measurement": "binary diffusion coefficient", "setting": "298.2 K, x1 = 0.01008", "result": "1.06e-09", "unit": "m2/s"},
      {"measurement": "binary diffusion coefficient", "setting": "298.2 K, x1 = 0.04965", "result": "8.51e-10", "unit": "m2/s"},
      {"measurement": "binary diffusion coefficient", "setting": "303.2 K, x1 = 0.000511", "result": "1.28e-09", "unit": "m2/s"},
      {"measurement": "binary diffusion coefficient", "setting": "303.2 K, x1 = 0.001034", "result": "1.27e-09", "unit": "m2/s"},
      {"measurement": "binary diffusion coefficient", "setting": "303.2 K, x1 = 0.004989", "result": "1.23e-09", "unit": "m2/s"},
      {"measurement": "binary diffusion coefficient", "setting": "303.2 K, x1 = 0.009331", "result": "1.2e-09", "unit": "m2/s"},
      {"measurement": "binary diffusion coefficient", "setting": "303.2 K, x1 = 0.01008", "result": "1.23e-09", "unit": "m2/s"},
      {"measurement": "binary diffusion coefficient", "setting": "303.2 K, x1 = 0.04965", "result": "9.71e-10", "unit": "m2/s"},
      {"measurement": "binary diffusion coefficient", "setting": "308.2 K, x1 = 0.000511", "result": "1.44e-09", "unit": "m2/s"},
      {"measurement": "binary diffusion coefficient", "setting": "308.2 K, x1 = 0.001034", "result": "1.46e-09", "unit": "m2/s"},
      {"measurement": "binary diffusion coefficient", "setting": "308.2 K, x1 = 0.004989", "result": "1.41e-09", "unit": "m2/s"},
      {"measurement": "binary diffusion coefficient", "setting": "308.2 K, x1 = 0.009331", "result": "1.36e-09", "unit": "m2/s"},
      {"measurement": "binary diffusion coefficient", "setting": "308.2 K, x1 = 0.01008", "result": "1.37e-09", "unit": "m2/s"},
      {"measurement": "binary diffusion coefficient", "setting": "308.2 K, x1 = 0.04965", "result": "1.1e-09", "unit": "m2/s"},
      {"measurement": "binary diffusion coefficient", "setting": "313.2 K, x1 = 0.000511", "result": "1.71e-09", "unit": "m2/s"},
      {"measurement": "binary diffusion coefficient", "setting": "313.2 K, x1 = 0.001034", "result": "1.71e-09", "unit": "m2/s"},
      {"measurement": "binary diffusion coefficient", "setting": "313.2 K, x1 = 0.004989", "result": "1.66e-09", "unit": "m2/s"},
      {"measurement": "binary diffusion coefficient", "setting": "313.2 K, x1 = 0.009331", "result": "1.57e-09", "unit": "m2/s"},
      {"measurement": "binary diffusion coefficient", "setting": "313.2 K, x1 = 0.01008", "result": "1.57e-09", "unit": "m2/s"},
      {"measurement": "binary diffusion coefficient", "setting": "313.2 K, x1 = 0.04965", "result": "1.28e-09", "unit": "m2/s"}
    ]}
  ]
}
